# Starred links: 1 amine or outer side, 2 acyl side, 3 side chain; linkers in the order of their positions; H or OH if unused. Positions of bridges follow the written chain, without caps; N, C: chain ends. Non-standard residues stand in square brackets, D forms with d. Residues, ends and D or L forms follow the SMILES beside them. *: point of attachment. NH(CH2)5NHDOTA = O=C(O)CN1CCN(CC(=O)O)CCN(CC(=O)NCCCCCN*)CCN(CC(=O)O)CC1; NH(CH2)3NHDOTA = O=C(O)CN1CCN(CC(=O)O)CCN(CC(=O)NCCCN*)CCN(CC(=O)O)CC1; X3 = O=C(O)CN1CCN(CC(=O)O)CCN(CC(=O)NCCCOCCOCCOCCCN*)CCN(CC(=O)O)CC1; DOTA = O=C(O)CN1CCN(CC(=O)O)CCN(CC(=O)*)CCN(CC(=O)O)CC1; mXylylene = c1cc(C[*:1])cc(C[*:2])c1; X2 = O=C(CN1CCC(N[*:1])CC1)[*:2]; Suc = O=C(CCC(=O)[*:2])[*:1]
# How the values were obtained:
# [1] = biological target: T1, Recombinant soluble human NEP (Homo sapiens, UniProt P08473); assay: Proteolytic stability assay against NEP; assay type: in vitro ADME; conditions: 100 ng/mL NEP, 10 μM compound, 37°C
# T1 construct: Recombinant soluble human NEP; purchased BioTechne, Wiesbaden, Germany
# T1 sequence (P08473 52-750 limits assumed): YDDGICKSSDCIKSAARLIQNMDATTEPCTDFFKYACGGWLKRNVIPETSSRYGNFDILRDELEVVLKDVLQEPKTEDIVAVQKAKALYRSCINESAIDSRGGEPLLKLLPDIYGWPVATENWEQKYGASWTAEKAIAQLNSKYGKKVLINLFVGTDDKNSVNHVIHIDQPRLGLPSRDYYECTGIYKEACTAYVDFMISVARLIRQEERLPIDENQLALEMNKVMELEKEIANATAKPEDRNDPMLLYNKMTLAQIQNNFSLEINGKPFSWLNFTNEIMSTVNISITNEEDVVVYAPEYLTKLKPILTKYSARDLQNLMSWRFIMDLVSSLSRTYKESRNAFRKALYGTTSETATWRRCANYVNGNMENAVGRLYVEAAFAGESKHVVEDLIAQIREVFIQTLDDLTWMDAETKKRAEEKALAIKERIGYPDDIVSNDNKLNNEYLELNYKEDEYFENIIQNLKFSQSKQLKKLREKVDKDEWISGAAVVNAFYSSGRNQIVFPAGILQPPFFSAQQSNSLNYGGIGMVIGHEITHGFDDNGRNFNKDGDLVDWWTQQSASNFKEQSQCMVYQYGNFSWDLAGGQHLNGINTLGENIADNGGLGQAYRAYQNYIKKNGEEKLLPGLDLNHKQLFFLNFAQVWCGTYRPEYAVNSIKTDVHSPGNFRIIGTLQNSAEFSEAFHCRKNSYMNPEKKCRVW
# Description: To assess the stability of compounds against NEP, the compounds were subjected to an in vitro assay based on the protocol described by Edelson et al. (Edelson et al., Pulmonary pharmacology & therapeutics, 2013, 26, 229-238).
# Recombinant soluble human NEP (BioTechne, Wiesbaden, Germany) at a concentration of 100 ng/mL was mixed with the compound (10 μM) and a stable internal standard (10 μM) and incubated at 37° C. After several time points, samples were taken and analyzed with LC-MS.
# The activity of NEP was examined using a commercially available chromogenic substrate of NEP.
# [2] = biological target: T2, human carbonic anhydrase IX (hCAIX-Fc) (Homo sapiens, UniProt Q16790); assay: Surface plasmon resonance assay with hCAIX-Fc; assay type: binding; conditions: 25° C.; for t1/2 category (activity): SPR dissociation half-life, hCAIX-Fc; for Kd: SPR, hCAIX-Fc captured, read-out: pKD category (activity) (converted)
# T2 construct: purchased SinoBliological (Sino Biological) 10107-H02H
# [3] = Plasma stability assay, mouse plasma; conditions: mouse plasma, 37°C, 4 h
# [4] = biological target: T3, CAIX-expressing human HT-29 colorectal cancer cells (Homo sapiens, UniProt Q16790); assay: FACS binding assay (IC50 determination, competition with tracer 3BP-2776 or 3BP-4149); conditions: FACS competition on HT-29 cells, Tracer ID 3BP-2776 (10 nM, biotin-labeled), 4° C., 1 hour; read-out: pIC50 category (activity) (converted)
# T3 construct: CAIX-expressing human HT-29 colorectal cancer cells; host or cells: HT-29 human colorectal cancer cells
# Procedure, shortened: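 HT-29 cells in FACS buffer (PBS, 1% FCS) at 500.000 cells/ml were exposed to compounds competing with a labelled tracer, with biotinylated compounds detected by 1 μg/mL APC-streptavidin for 30 min on ice. APC/Cy5 median fluorescence was read by flow cytometry and IC50 derived by 4PL fit.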
# human CAIX = human CAIX (Homo sapiens, UniProt Q16790); assay: In vitro SPR binding assay of DPI-4452, natLu-DPI-4452 and natGa-DPI-4452 to CAIX (anti-human Fc capture); set-up: purchased SinoBliological (Sino Biological) 10107-H02H; conditions: SPR
# Description: Surface Plasmon Resonance (SPR) studies were performed on a Biacore™ T200 using a ligand capture approach. Basically, anti-human Fc antibodies were immobilized on the surface of a sensor chip and CAIX was captured on the functionalized surface via its Fc Tag.
# Then, each compound was injected at increasing concentrations on the captured CAIX in order to measure the in real-time interaction of the compound to its target (i.e. the captured CAIX). The in real-time monitoring of the association and dissociation of the interaction gives access to the interaction kinetics parameters (i.e. the association and dissociation rate constants and the resulting affinity constants).
# • A series S CM5 sensor chip was used (Cytiva). • All reagents used for the immobilization procedure were part of the Amine Coupling Kit, type 2 and/or the Human Antibody Capture Kit (Cytiva). The running buffer (HBS-EP+) was prepared by 10-fold dilution of the stock HBS-EP+ 10× solution (Cytiva). • Anti-human Fc antibodies stock solution (0.5 mg/mL in 0.15 M NaCl) was diluted in 10 mM sodium acetate pH 5.0 to a final concentration of 25 μg/mL directly into a plastic vial 7 mm. • Amine coupling reagents were transferred into plastic vials 7 mm as follow: • 95 μL of 0.4 M 1-ethyl-3-(3-dimethylaminopropyl)carbodiimide (EDC). • 95 μL of 0.1 M N-hydroxysuccinimide (NHS). • An empty plastic vial 7 mm was added in the Biacore™ sample rack for mixing. • 150 μL of 1 M ethamolamine-HCl, pH 8.5. • Plastic vials were closed with rubber caps and the sample rack was inserted into the Biacore™ T200 sample compartment. • The Biacore™ T200 Amine Wizard was used to immobilize the anti-Human Fc antibodies on the four flow-cells of a series S CM5 sensor chip simultaneously with defined contact time of 360 seconds and flow-rate of 5 μL/min. • The immobilization procedure was performed at 25° C., following Cytiva's recommendations, as described in Table 23.
# This procedure allowed to reach immobilization levels between 6000 and 9000 RU of anti-human Fc antibodies on the sensor chip surface.
# • CAIX (Sino Biological, 10107-H02H) stock solution was prepared from lyophilized material reconstituted with deionized water to a concentration of 0.25 μg/mL (3.69 μM), following the supplier recommendations. • CAIX working solution was obtained after dilution of CAIX stock solution with PBS-P+1×, 0.1% DMSO to a final concentration of 200 nM directly in a Biacore™ plastic vial.
# • For each measurement, the raw surface plasmon resonance response (RU) was plotted against time (s) as a sensorgram using the Biacore™ T200 Control Software. • Raw data were corrected by double referencing with subtraction of the signal of both the reference flow-cell and the blank cycle. • The association and dissociation rate constants (ka and kd, respectively), as well as the dissociation constant KD and dissociation half-life t1/2 were determined from the corrected sensorgrams by fitting the data to a 1:1 Langmuir binding model with the Biacore™ T200 evaluation software.
SMILES,% intact compound remaining after 24 h incubation [1],t1/2 category (activity) [2],Kd [2],% intact compound remaining (incubation time) [3],IC50 [4],affinity of binding to CAIX (human CAIX)
CC(C)C[C@@H]1NC(=O)[C@H](Cc2c[nH]c3ccccc23)NC(=O)[C@H](CC(=O)O)NC(=O)[C@H]2CCCN2C(=O)[C@H](CCC(=O)O)NC(=O)[C@@H](NC(=O)[C@H](Cc2ccc(O)cc2)NC(=O)[C@@H](NC(=O)CN2CCC(NC(=O)CN3CCN(CC(=O)O)CCN(CC(=O)O)CCN(CC(=O)O)CC3)CC2)C(C)C)CSCc2cccc(c2)CSC[C@@H](C(N)=O)NC(=O)[C@H](C)NC(=O)[C@H](Cc2c[nH]c3ccccc23)NC(=O)[C@H]([C@@H](C)O)NC1=O [3BP-3432] ({DOTA}-[X2]VYCE[dP]DWLTWAC-NH2; linker 4-13 via mXylylene),>95%,A (t1/2>15.0 minutes),< 10 nM,98%,< 10 nM,–
"CC(C)C[C@@H]1NC(=O)[C@H](Cc2cccc(NC(=O)CCCS(N)(=O)=O)c2)NC(=O)[C@H](CC(=O)O)NC(=O)[C@H]2CCCN2C(=O)[C@H](CCC(=O)O)NC(=O)[C@@H](NC(=O)[C@H](CCC(N)=O)NC(=O)CN2CCN(C(=O)CN3CCN(CC(=O)O)CCN(CC(=O)O)CCN(CC(=O)O)CC3)CC2)CSCc2cccc(c2)CSC[C@@H](C(N)=O)NC(=O)[C@H](CO)NC(=O)[C@H](Cc2c[nH]c3ccccc23)NC(=O)[C@H]([C@@H](C)O)NC1=O [^natLu-DPI-4452, metal not drawn]",–,–,–,–,–,subnanomolar affinity
"CC(C)C[C@@H]1NC(=O)[C@H](Cc2cccc(NC(=O)CCCS(N)(=O)=O)c2)NC(=O)[C@H](CC(=O)O)NC(=O)[C@H]2CCCN2C(=O)[C@H](CCC(=O)O)NC(=O)[C@@H](NC(=O)[C@H](CCC(N)=O)NC(=O)CN2CCN(C(=O)CN3CCN(CC(=O)O)CCN(CC(=O)O)CCN(CC(=O)O)CC3)CC2)CSCc2cccc(c2)CSC[C@@H](C(N)=O)NC(=O)[C@H](CO)NC(=O)[C@H](Cc2c[nH]c3ccccc23)NC(=O)[C@H]([C@@H](C)O)NC1=O [^natGa-DPI-4452, metal not drawn]",–,–,–,–,–,subnanomolar affinity
CC(C)C[C@@H]1NC(=O)[C@H](Cc2c[nH]c3ccccc23)NC(=O)[C@H](CC(=O)O)NC(=O)CNC(=O)[C@H](CCC(=O)O)NC(=O)[C@@H](NC(=O)[C@H](Cc2ccc(O)cc2)NC(=O)[C@@H](NC(=O)CCC(=O)NCCCOCCOCCOCCCNC(=O)CN2CCN(CC(=O)O)CCN(CC(=O)O)CCN(CC(=O)O)CC2)C(C)C)CSCc2cccc(c2)CSC[C@@H](C(N)=O)NC(=O)[C@H](CCC(N)=O)NC(=O)[C@H](Cc2c[nH]c3ccccc23)NC(=O)[C@H]([C@@H](C)O)NC1=O [3BP-2959] ({X3-Suc}-VYCEGDWLTWQC-NH2; linker 3-12 via mXylylene),>95%,D (t1/2≤2.0 minutes),–,>95%,< 10 nM,–
"CC(=O)N[C@H](C(=O)N[C@@H](Cc1ccc(O)cc1)C(=O)N[C@H]1CSCc2cccc(c2)CSC[C@@H](C(=O)NCCCCCNC(=O)CN2CCN(CC(=O)O)CCN(CC(=O)O)CCN(CC(=O)O)CC2)NC(=O)[C@H](C)NC(=O)[C@H](Cc2c[nH]c3ccccc23)NC(=O)[C@H]([C@@H](C)O)NC(=O)[C@H](CC(C)C)NC(=O)[C@H](Cc2c[nH]c3ccccc23)NC(=O)[C@H](CC(=O)O)NC(=O)[C@H]2CCCN2C(=O)[C@H](CCC(=O)O)NC1=O)C(C)C [3BP-3434, Ac-Val-Tyr-[Cys(3MeBn)-Glu-pro-Asp-Trp-Leu-Thr-Trp-Ala-Cys]-Ape-NH-DOTA] (Ac-VYCE[dP]DWLTWAC-{NH(CH2)5NHDOTA}; linker 3-12 via mXylylene)",>95%,–,–,>95%,< 10 nM,–
"CC(=O)N[C@H](C(=O)N[C@@H](Cc1ccc(O)cc1)C(=O)N[C@H]1CSCc2cccc(c2)CSC[C@@H](C(N)=O)NC(=O)[C@H](CCC(=O)NCCCNC(=O)CN2CCN(CC(=O)O)CCN(CC(=O)O)CCN(CC(=O)O)CC2)NC(=O)[C@H](Cc2c[nH]c3ccccc23)NC(=O)[C@H]([C@@H](C)O)NC(=O)[C@H](CC(C)C)NC(=O)[C@H](Cc2c[nH]c3ccccc23)NC(=O)[C@H](CC(=O)O)NC(=O)[C@H]2CCCN2C(=O)[C@H](CCC(=O)O)NC1=O)C(C)C [3BP-3478, Ac-Val-Tyr-[Cys(3MeBn)-Glu-pro-Asp-Trp-Leu-Thr-Trp-Glu(NH-Apr-DOTA)-Cys]-NH2] (Ac-VYCE[dP]DWLTWE(NH(CH2)3NHDOTA)C-NH2; linker 3-12 via mXylylene)",63%,A (t1/2>15.0 minutes),< 10 nM,>95%,< 10 nM,–
CC(=O)N[C@@H](CCCCNC(=O)CN1CCN(CC(=O)O)CCN(CC(=O)O)CCN(CC(=O)O)CC1)C(=O)N[C@H](C(=O)N[C@@H](Cc1ccc(O)cc1)C(=O)N[C@H]1CSCc2cccc(c2)CSC[C@@H](C(N)=O)NC(=O)[C@H](C)NC(=O)[C@H](Cc2c[nH]c3ccccc23)NC(=O)[C@H]([C@@H](C)O)NC(=O)[C@H](CC(C)C)NC(=O)[C@H](Cc2c[nH]c3ccccc23)NC(=O)[C@H](CC(=O)O)NC(=O)[C@H]2CCCN2C(=O)[C@H](CCC(=O)O)NC1=O)C(C)C [3BP-3427] (Ac-K(DOTA)VYCE[dP]DWLTWAC-NH2; linker 4-13 via mXylylene),>95%,–,–,>95%,< 10 nM,–
